Columns and labels:
[1] = tested on: GBM39 cells; assay: Next generation sequencing fine structure analysis of EGFRvIII amplification in GBM39 cultures; format: cell-based, human; settings: Erlotinib Treatment (ERZ) sample (row 4), FIG. 13B, naive samples 110 to 150
[2] = tested on: GBM39 cells; assay: FISH images of EGFRvIII amplification (extrachromosomal or chromosomal DNA) in GBM39 cells; format: cell-based, human; settings: FIG. 13A
Experimental: Cytogenetics. Metaphase cells were obtained by treating cells with Karyomax (Gibco) at a final concentration of 0.01 μg/ml for 1-3 hours. Cells were collected, washed in PBS, and resuspended in 0.075 M KCl for 15-30 minutes. Carnoy's fixative (3:1 methanol/glacial acetic acid) was added dropwise to stop the reaction. Cells were washed an additional 3 times with Carnoy's fixative, before being dropped onto humidified glass sides for metaphase cell preparations. For ECdetect analyses, DAPI was added to the slides. Images in the main figures were captured with an Olympus FV1000 confocal microscope. All other images were captured at a magnification of 1000 with an Olympus BX43 microscope equipped with a QiClick cooled camera. FISH was performed by adding the appropriate DNA FISH probe onto the fixed metaphase spreads. A coverslip was added and sealed with rubber cement. DNA denaturation was carried out at 75° C. for 3-5 minutes and the slides were allowed to hybridize overnight at 37° C. in a humidified chamber. Slides were subsequently washed in 0.4×SSC at 50° C. for 2 minutes, followed by a final wash in 2×SSC/0.05% Tween-20. Metaphase cells and interphase nuclei were counterstained with DAPI, a coverslip was applied, and images were captured.

SMILES: C#Cc1cccc(Nc2ncnc3cc(OCCOC)c(OCCOC)cc23)c1 [Erlotinib]
- Average copy numbers of amplified intervals as determined from sequencing analysis [1]: 5.4
- Location of EGFRvIII amplification in FISH images ([2]; GBM39 cells after Drug Withdrawal): EC amplification
- Location of EGFRvIII amplification in FISH images ([2]; GBM39 cells in response to Erlotinib Treatment (ERZ), naive cells EC amplification): HSR amplification
